Measured values from ChEMBL document CHEMBL5131468, “Systematic comparison of activity and mechanism of antimicrobial peptides against nosocomial pathogens” (Eur J Med Chem, 2022).
Converted amounts (≈) assume the structure as drawn. The source made the active and inactive calls. The calls are words filed in the database; no cut-off is given here. Peptide text beside a SMILES is read from it.

Key:
Escherichia coli [1] = assay: Bactericidal activity against Escherichia coli BAA3051 incubated for 90 mins by serial dilution assay; type: functional
Staphylococcus aureus [2] = assay: Bactericidal activity against Staphylococcus aureus ATCC 29213 incubated for 90 mins by serial dilution assay; type: functional
Escherichia coli [3] = assay: Antibacterial activity against Escherichia coli BAA3051 assessed as inhibition of bacterial growth incubated for 90 mins by serial dilution assay; type: functional
Escherichia coli [4] = assay: Bactericidal activity against Escherichia coli ATCC 25922 incubated for 90 mins by serial dilution assay; type: functional
Staphylococcus aureus [5] = assay: Bactericidal activity against Methicillin resistant Staphylococcus aureus ATCC 33591 incubated for 90 mins by serial dilution assay; type: functional
Salmonella typhimurium [6] = assay: Bactericidal activity against Salmonella enterica serovar typhimurium SL1344 incubated for 90 mins by serial dilution assay; type: functional
Salmonella typhimurium [7] = assay: Antibacterial activity against Salmonella enterica serovar typhimurium SL1344 assessed as inhibition of bacterial growth incubated for 90 mins by serial dilution assay; type: functional
Staphylococcus aureus [8] = assay: Antibacterial activity against Staphylococcus aureus ATCC 29213 assessed as inhibition of bacterial growth incubated for 90 mins by serial dilution assay; type: functional
Escherichia coli [9] = assay: Antibacterial activity against Escherichia coli ATCC 25922 assessed as inhibition of bacterial growth incubated for 90 mins by serial dilution assay; type: functional
Staphylococcus aureus [10] = assay: Antibacterial activity against Methicillin resistant Staphylococcus aureus ATCC 33591 assessed as inhibition of bacterial growth incubated for 90 mins by serial dilution assay; type: functional
Enterococcus faecalis [11] = assay: Antibacterial activity against Enterococcus faecalis ATCC 29212 assessed as inhibition of bacterial growth incubated for 90 mins by serial dilution assay; type: functional
Enterococcus faecalis [12] = assay: Bactericidal activity against Enterococcus faecalis ATCC 29212 incubated for 90 mins by serial dilution assay; type: functional
Cell membrane [13] = assay: Induction of outer membrane permeabilization in Escherichia coli ATCC 25922 assessed as increase in NPN fluorescence intensity incubated for 15 mins by NPN-dye based fluorescence analysis; type: subcellular
Cell membrane [14] = assay: Induction of membrane depolarization in Escherichia coli ATCC 25922 at 0.25 to 0.5 times MIC after 60 mins by DiOC23 dye based based flow cytometry; type: subcellular
Staphylococcus aureus [15] = assay: Induction of morphological changes in Staphylococcus aureus ATCC 29213 at 0.5 to 2 times MIC incubated for 90 mins by Helium ion microscopy; type: functional, organism-based
Cell membrane [16] = assay: Induction of outer membrane permeabilization in Salmonella enterica serovar typhimurium SL1344 assessed as increase in NPN fluorescence intensity incubated for 15 mins by NPN-dye based fluorescence analysis; type: subcellular; settings: Salmonella enterica subsp. enterica serovar Typhimurium
Cell membrane [17] = assay: Induction of membrane depolarization in Enterococcus faecalis ATCC 29212 at 0.25 times MIC after 60 mins by DiOC23 dye based based flow cytometry; type: subcellular
Cell membrane [18] = assay: Induction of outer membrane permeabilization in Escherichia coli BAA3051 assessed as increase in NPN fluorescence intensity incubated for 15 mins by NPN-dye based fluorescence analysis
HEK293 [19] = assay: Cytotoxicity against human HEK293 cells assessed as decrease in live cells at 250 ug/ml incubated for 2 hrs by MTS assay; type: toxicity, cell-based; settings: hek293, 2 h, dose 250 µg/ml
Cell membrane [20] = assay: Induction of membrane depolarization in Staphylococcus aureus ATCC 29213 at 0.25 times MIC after 60 mins by DiOC23 dye based based flow cytometry; type: subcellular
Cell membrane [21] = assay: Induction of membrane depolarization in Enterococcus faecalis ATCC 29212 at 0.5 times MIC after 60 mins by DiOC23 dye based based flow cytometry relative to control
Cell membrane [22] = assay: Induction of membrane depolarization in Salmonella enterica serovar typhimurium SL1344 at 0.5 times MIC after 60 mins by DiOC23 dye based based flow cytometry relative to control; settings: Salmonella enterica subsp. enterica serovar Typhimurium
Cell membrane [23] = assay: Induction of inner membrane damage in Escherichia coli ATCC 25922 assessed disruption of membrane integrity at 0.5 to 256 ug/ml and measured after 90 mins by propidium iodide staining based flow cytometry; type: subcellular; settings: dose 0.5-256 µg/ml
Cell membrane [24] = assay: Induction of membrane depolarization in Staphylococcus aureus ATCC 29213 at 0.5 times MIC after 60 mins by DiOC23 dye based based flow cytometry relative to control; type: subcellular
Cell membrane [25] = assay: Induction of membrane depolarization in Salmonella enterica serovar typhimurium SL1344 at 0.25 to 0.5 times MIC after 60 mins by DiOC23 dye based based flow cytometry; type: subcellular; settings: Salmonella enterica subsp. enterica serovar Typhimurium
HEK293 [26] = assay: Cytotoxicity against human HEK293 cells assessed as decrease in live cells upto 125 ug/ml incubated for 2 hrs by MTS assay; type: toxicity, cell-based; settings: hek293, 2 h, dose < 125 µg/ml
Cell membrane [27] = assay: Induction of membrane depolarization in Escherichia coli ATCC 25922 at 0.5 times MIC after 60 mins by DiOC23 dye based based flow cytometry relative to control
Escherichia coli [28] = assay: Induction of morphological changes in Escherichia coli ATCC 25922 at 0.5 times MIC incubated for 90 mins by Helium ion microscopy; type: functional, organism-based
Cell membrane [29] = assay: Induction of inner membrane damage in Staphylococcus aureus ATCC 29213 assessed disruption of membrane integrity at 0.5 to 256 ug/ml and measured after 90 mins by propidium iodide staining based flow cytometry; type: subcellular; settings: dose 0.5-256 µg/ml
Escherichia coli [30] = assay: Induction of morphological changes in Escherichia coli ATCC 25922 assessed as leakage in intracellular contents at 0.5 times MIC incubated for 90 mins by Helium ion microscopy; type: functional, organism-based
Staphylococcus aureus [31] = assay: Induction of morphological changes in Staphylococcus aureus ATCC 29213 incubated for 90 mins by Helium ion microscopy; type: functional, organism-based
Lipid bilayer = assay: Induction of membrane disruption in Gram-negative bacterial cell membrane mimic POPE:POPG(7:3) large unilamellar vesicle assessed as carboxyfluorescein leakage by fluorescence analysis
HEK293 [32] = assay: Cytotoxicity against human HEK293 cells assessed as increase in LDH release at 31.25 ug/ml incubated for 2 hrs by LDH assay; type: toxicity, cell-based; settings: hek293, 2 h, dose 31.25 µg/ml
Escherichia coli [33] = assay: Induction of morphological changes in Escherichia coli ATCC 25922 assessed as membrane collapse at 0.5 to 2 times MIC incubated for 90 mins by Helium ion microscopy; type: functional, organism-based
HEK293 [34] = assay: Cytotoxicity against human HEK293 cells assessed as decrease in live cells at 15.6 ug/ml incubated for 2 hrs by MTS assay; type: toxicity, cell-based; settings: hek293, 2 h, dose 15.6 µg/ml
Escherichia coli [35] = assay: Induction of morphological changes in Escherichia coli ATCC 25922 assessed as leakage in intracellular contents at 0.5 to 2 times MIC incubated for 90 mins by Helium ion microscopy; type: functional, organism-based
[36] = Salmonella enterica subsp. enterica serovar Typhimurium

Row | Compound | Activity (Cell membrane [13]) | Activity (Cell membrane [14]) [%] | Activity (Staphylococcus aureus [15]) | MBC (Escherichia coli [1]; BAA3051, 1.5 h) [µg/mL] | MBC (Staphylococcus aureus [2]; ATCC 29213, 1.5 h) [µg/mL] | MIC (Escherichia coli [3]; BAA3051, 1.5 h) [µg/mL] | MBC (Escherichia coli [4]; ATCC 25922, 1.5 h) [µg/mL] | Activity (Cell membrane [16]) | MBC (Staphylococcus aureus [5]; ATCC 33591, 1.5 h) [µg/mL] | Activity (Cell membrane [18]) | MBC (Salmonella typhimurium [6]; SL1344, 1.5 h) [µg/mL] | MIC (Salmonella typhimurium [7]; SL1344, 1.5 h) [µg/mL] | MIC (Staphylococcus aureus [8]; ATCC 29213, 1.5 h) [µg/mL] | MIC (Escherichia coli [9]; ATCC 25922, 1.5 h) [µg/mL] | MIC (Staphylococcus aureus [10]; ATCC 33591, 1.5 h) [µg/mL] | Activity (Cell membrane [21]) [%] | Activity (Cell membrane [22]) [%] | Activity (Cell membrane [23]) | Activity (Cell membrane [24]) [%] | Activity (Cell membrane [25]) [%] | further results
1 | GENTAMICIN |  |  |  |  |  |  |  |  |  |  |  |  |  |  |  |  |  |  |  |  | MBC (Escherichia coli [1]): 1.9 µg/mL; MBC (Staphylococcus aureus [2]): 6.25 µg/mL; MIC (Escherichia coli [3]): 1.9 µg/mL; MBC (Escherichia coli [4]): 6.25 µg/mL; MBC (Staphylococcus aureus [5]): 62.5 µg/mL; MBC (Salmonella typhimurium [6]; [36]): 12.5 µg/mL; MIC (Salmonella typhimurium [7]; [36]): 12.5 µg/mL; MIC (Staphylococcus aureus [8]): 3.9 µg/mL; MIC (Escherichia coli [9]): 0.9 µg/mL; MIC (Staphylococcus aureus [10]): 7.8 µg/mL; MIC (Enterococcus faecalis [11]): 3.9 µg/mL; MBC (Enterococcus faecalis [12]): 31.3 µg/mL
2 | CC[C@H](C)[C@H](NC(=O)[C@H](CO)NC(=O)[C@H](CCCCN)NC(=O)[C@H](Cc1c[nH]c2ccccc12)NC(=O)[C@H](CC(C)C)NC(=O)[C@H](C)N)C(=O)N[C@@H](CC(C)C)C(=O)N[C@@H](CCCCN)C(=O)N[C@@H](CC(N)=O)C(=O)N[C@H](C(=O)NCC(=O)N[C@@H](CCCCN)C(=O)N[C@@H](C)C(=O)N[C@@H](C)C(=O)NCC(=O)N[C@@H](CCCCN)C(=O)N[C@@H](C)C(=O)N[C@H](C(=O)N[C@@H](CC(C)C)C(=O)O)C(C)C)C(C)C (H-ALWKSILKNVGKAAGKAVL-OH) | Active | 30 | Active | 31.3 (≈ 15.9 µM) | > 125 | 31.3 (≈ 15.9 µM) | 31.3 (≈ 15.9 µM) | Active | > 250 | Active | 250 (≈ 127 µM) | 250 (≈ 127 µM) | 62.5 (≈ 31.8 µM) | 31.3 (≈ 15.9 µM) | > 125 | 40 | 40 | Active | 40 | 30 | Activity (Cell membrane [17]): Active; Activity (HEK293 [19]): Toxic; Activity (Cell membrane [20]): Active; Activity (HEK293 [26]): Toxic; MIC (Enterococcus faecalis [11]; ATCC 29212, 1.5 h): 250 µg/mL (≈ 127 µM); Activity (Cell membrane [27]): 40%; MBC (Enterococcus faecalis [12]; ATCC 29212, 1.5 h): 250 µg/mL (≈ 127 µM)
3 | CC[C@H](C)[C@H](NC(=O)[C@H](CCCCN)NC(=O)[C@@H](NC(=O)[C@H](Cc1ccccc1)NC(=O)[C@H](C)NC(=O)[C@H](CCCCN)NC(=O)CNC(=O)[C@H](Cc1ccccc1)NC(=O)[C@H](CCCCN)NC(=O)[C@H](CCCCN)NC(=O)[C@H](C)NC(=O)[C@H](CCCCN)NC(=O)[C@H](CCCCN)NC(=O)[C@H](CC(C)C)NC(=O)[C@H](Cc1ccccc1)NC(=O)[C@@H](N)CCCCN)C(C)C)C(=O)N[C@@H](CC(C)C)C(=O)O (H-KFLKKAKKFGKAFVKIL-OH) | Active | 30 | Active | 7.8 (≈ 3.91 µM) | 31.3 (≈ 15.7 µM) | 7.8 (≈ 3.91 µM) | 15.6 (≈ 7.82 µM) | Active | > 125 | Active | 7.8 (≈ 3.91 µM) | 7.8 (≈ 3.91 µM) | 15.6 (≈ 7.82 µM) | 15.6 (≈ 7.82 µM) | > 125 | 40 | 40 | Active | 40 | 30 | Activity (Escherichia coli [28]): Active; Activity (Cell membrane [29]): Active; Activity (Escherichia coli [30]): Active; Activity (Staphylococcus aureus [31]): Active; Activity (Lipid bilayer): 20%; Activity (HEK293 [32]): Toxic; Activity (Escherichia coli [33]): Active; Activity (HEK293 [34]): Toxic; Activity (Escherichia coli [35]): Active; MIC (Enterococcus faecalis [11]; ATCC 29212, 1.5 h): 31.3 µg/mL (≈ 15.7 µM); Activity (Cell membrane [27]): 40%; MBC (Enterococcus faecalis [12]; ATCC 29212, 1.5 h): 125 µg/mL (≈ 62.7 µM)
